Results from PubChem BioAssay (NCI).
Values joined by “and” are separate entries in the source; they are usually repeats but may differ in a detail not shown here. Identical values can stand only once.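 Compound exposure: 48 hours, 5 concentrations, 96-well plates. The concentration for 50% growth inhibition is given as GI50. TGI is the concentration that stops growth completely.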

Columns and labels:
Experiment in all cases: DTP human tumour cell line panel, 48 h
[1] = tested on: OVCAR-3 ovarian
[2] = tested on: ACHN renal
[3] = tested on: HCT-15 colon
[4] = tested on: HOP-92 NSCLC
[5] = tested on: SW-620 colon
[6] = tested on: MDA-MB-435
[7] = tested on: HCT-116 colon
[8] = tested on: KM12 colon
[9] = tested on: SR leukemia
[10] = tested on: SK-MEL-2 melanoma

Structure (SMILES)	GI50 [1]	TGI [1]	GI50 [2]	TGI [2]	GI50 [3]	TGI [3]	GI50 [4]	TGI [4]	GI50 [5]	TGI [5]	GI50 [6]	TGI [6]	GI50 [7]	TGI [7]	GI50 [8]	TGI [8]	GI50 [9]	TGI [9]	GI50 [10]	TGI [10]
NS(=O)(=O)c1ccc(N2Cc3cc(Cl)ccc3OC3=C2C(=O)N(CC2CCCCC2)C3=O)cc1	0.207 µM	0.429 µM	0.286 µM	0.883 µM	0.344 µM	1.45 µM	1.31 µM	2.67 µM	0.202 µM	0.445 µM	0.903 µM	2.23 µM	0.208 µM	0.44 µM	1.83 µM	4.08 µM	0.284 µM	0.839 µM	1.86 µM	3.65 µM
COC(=O)c1ccc2c(c1)C(NC(C)=O)CCc1cc(OC)c(OC)c(OC)c1-2 (stereo not given)	–	1.23 µM	–	> 100 µM	–	> 44.3 µM	–	13.1 µM	–	> 100 µM	–	< 0.01 µM	–	0.391 µM	–	0.219 µM	–	2.68 µM	–	6.58 µM
COC(=O)C1=C(OC(=O)c2ccc(Cl)cc2)C(C(=O)OC)[C@@]2(O)[C@@H](C(=O)OC)C(c3ccccc3C(F)(F)F)C[C@@H]1[C@@H]2C(=O)OC (stereo not given in full)	20.3 µM	47.9 µM	3.19 µM	> 100 µM	2.87 µM	14.6 µM	6.27 µM	> 100 µM	3.83 µM	21.1 µM	17.6 µM	50.2 µM	2.92 µM	11.4 µM	23.9 µM	64.2 µM	3.94 µM	> 100 µM	15.5 µM	33.9 µM
O=C(O)c1cc[c]([Hg][S]c2ncnc3nc[nH]c23)cc1	1.88 µM	19.9 µM	11.6 µM	23.7 µM	11.2 µM	27.2 µM	2.21 µM	23 µM	11.4 µM	23.5 µM	3.81 µM	16.8 µM	4.89 µM	22.3 µM	14.3 µM	> 50.1 µM	1.32 µM	7.16 µM	4.83 µM	19.4 µM
Clc1ccc(COC(Cn2ccnc2)c2ccc(Cl)cc2Cl)cc1 (stereo not given)	2.5 µM	6.49 µM and 23.2 µM and 25.1 µM	3.59 µM	12.6 µM and 29.8 µM and 25.9 µM	3.24 µM	12.7 µM and 27.5 µM	0.511 µM	3.42 µM and 24.1 µM and 25.2 µM	2.96 µM	13.3 µM and 27.4 µM and 29.2 µM	2.91 µM	11.7 µM and 24.4 µM and 24 µM	1.42 µM	3.1 µM and 21.1 µM and 20.2 µM	3.18 µM	11 µM and 29.5 µM and 28.4 µM	2.79 µM	10.6 µM and 21.6 µM and 14.7 µM	2.32 µM	5.08 µM and 28.9 µM and 28.8 µM
CCc1nc(N)nc(N)c1-c1ccc([N+](=O)[O-])c(NCc2ccccc2)c1	–	36.6 µM	–	30.5 µM	–	38.2 µM	–	25.9 µM	–	42.9 µM	–	38.3 µM	–	> 47.3 µM	–	49.2 µM	–	31.1 µM	–	50.2 µM
COc1cc(-c2oc3ccccc3c(=O)c2O)cc(OC)c1OC	–	> 100 µM	–	75.4 µM	–	> 100 µM	–	44 µM	–	> 100 µM	–	> 100 µM	–	> 100 µM	–	> 100 µM	–	> 24.8 µM	–	> 100 µM
S=C(N/N=C/c1cc(Cl)cc(Cl)c1)NC12CC3CC(CC(C3)C1)C2	6.03 µM	> 100 µM	2.29 µM	8.05 µM	> 56.6 µM	> 100 µM	2.5 µM	12 µM	13.4 µM	> 100 µM	> 27.6 µM	> 100 µM	5.24 µM	> 100 µM	> 100 µM	> 100 µM	5.02 µM	> 32 µM	7.74 µM	> 30.3 µM
COc1ccc(-c2cc(-c3ccc(Cl)cc3)c(C#N)c(=O)n2CCCCC(=O)Nc2ccccc2N)cc1	13.5 µM	56.6 µM	5.25 µM	> 100 µM	3.03 µM	13 µM	2.59 µM	9.99 µM	12.6 µM	> 100 µM	5.8 µM	> 100 µM	3.25 µM	20.7 µM	5.17 µM	> 100 µM	1.09 µM	> 100 µM	9.05 µM	37.8 µM
N/C(=N\OC(=O)c1ccccc1)C(C(=O)NOC(=O)c1ccccc1)C1CCCCC1 (stereo not given)	4.56 µM	15.9 µM	3.04 µM	10.9 µM	9.65 µM	23.5 µM	2.39 µM	7.72 µM	11.5 µM	27.7 µM	2.21 µM	5.59 µM	3.45 µM	13 µM	11.4 µM	25.1 µM	1.99 µM	4.99 µM	12.5 µM	26.6 µM
Cc1ccc(C(=O)/C(=C/c2ccc([N+](=O)[O-])cc2)S(=O)Cc2ccccc2)cc1 (stereo not given)	1.28 µM	2.57 µM	1.56 µM	2.92 µM	1.07 µM	2.59 µM	1.41 µM	3.22 µM	0.916 µM	2.94 µM	1.47 µM	3.04 µM	1.57 µM	2.99 µM	1.56 µM	3.4 µM	0.539 µM	5.21 µM	1.57 µM	3.26 µM
Cc1cc2c(cc1C)NC1=C(N2)OC(c2c[nH]c3ccc(COc4ccccc4)cc23)C1=O (stereo not given)	–	> 100 µM	–	> 100 µM	–	> 100 µM	–	> 100 µM	–	> 100 µM	–	> 100 µM	–	> 100 µM	–	> 100 µM	–	> 100 µM	–	> 100 µM
Nc1c(C(=O)Nc2ccc([As](=O)(O)O)cc2)cnc2nnnn12	–	> 100 µM	–	> 100 µM	–	> 100 µM	–	> 100 µM	–	> 100 µM	–	> 100 µM	–	> 100 µM	–	> 100 µM	–	> 100 µM	–	> 100 µM
CC(C)n1c(/C=C/[C@@H](O)C[C@@H](O)CC(=O)O)c(-c2ccc(F)cc2)c2ccccc21	12.2 µM and 15 µM	46.7 µM and > 100 µM	0.725 µM and 0.558 µM	> 100 µM	3.04 µM and 1.66 µM	> 100 µM	0.0329 µM and 0.0368 µM	0.282 µM and 0.183 µM	3.76 µM and 5.15 µM	> 100 µM	10.5 µM and 14.4 µM	> 100 µM	1.12 µM and 1.56 µM	11.1 µM and > 100 µM	16.6 µM and 21.9 µM	> 100 µM	2.16 µM and 2.8 µM	> 61.7 µM	1.51 µM and 0.983 µM	30.9 µM and 22.3 µM
